# Experimental data from patent US20020111274A1, “1-alkyl-3-[1-(substituted phenyl) benzotriazol-6-yl] uracils” (BASF Aktiengesellschaft, priority 2000, published 2002).
# Assays:
# Design in all cases: scale not given here
# [1] = test system: IPOHE Morningglory, Ivyleaf; assay: Preemergence herbicidal evaluation, IPOHE; assay type: in vivo, Ipomoea hederacea, (L.) Jacq.; conditions: preemergence
# Outline: (§1)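 Compound applied preemergence as an aqueous acetone spray onto freshly planted cups, dose equivalent approx. 0.013 to 0.800 kg/ha. Evaluation by rating at weeks 4–5.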
# ZEAMX Corn, Field [2] = assay: Preemergence herbicidal evaluation, ZEAMX; assay type: in vivo, Zea mays, L. (Sammel-Bezeichnung); conditions: preemergence
# Outline: as §1
# ABUTH Velvetleaf [3] = assay: Postemergence herbicidal evaluation, ABUTH; assay type: in vivo, Abutilon theophrasti, Medic.; conditions: postemergence spray, rated about two-three weeks after treatment
# Outline: (§2)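 Plants are raised for roughly two weeks, then treated postemergence with compound dispersed in acetone/water (80/20) plus 1.0% seed oil adjuvant, at rates of about 0.006 kg to 0.400 kg per hectare. After greenhouse care, damage is scored two to three weeks later.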
# SETVI Foxtail, Green [4] = assay: Postemergence herbicidal evaluation, SETVI; assay type: in vivo, Setaria viridis, (L.) Beau; conditions: postemergence spray, rated about two-three weeks after treatment
# Outline: as §2
# GALAP Galium [5] = assay: Postemergence herbicidal evaluation, GALAP; assay type: in vivo, Galium aparine; conditions: postemergence spray, rated about two-three weeks after treatment
# Outline: as §2
# SETVI Foxtail, Green [6] = assay: Preemergence herbicidal evaluation, SETVI; assay type: in vivo, Setaria viridis, (L.) Beau; conditions: preemergence
# Outline: as §1
# CASOB Sicklepod [7] = assay: Preemergence herbicidal evaluation, CASOB; assay type: in vivo, Cassia obtusifolia, L.; conditions: preemergence
# Outline: as §1
# ORYSAT Rice, Tebonnet [8] = assay: Preemergence herbicidal evaluation, ORYSAT; assay type: in vivo, Oryza sativa, (L.); conditions: preemergence
# Outline: as §1
# [9] = test system: CHEAL Lambsquarters, Common; assay: Preemergence herbicidal evaluation, CHEAL; assay type: in vivo, Chenopodium album, L.; conditions: preemergence
# Outline: as §1
# CASOB Sicklepod [10] = assay: Postemergence herbicidal evaluation, CASOB; assay type: in vivo, Cassia obtusifolia, L.; conditions: postemergence spray, rated about two-three weeks after treatment
# Outline: as §2
# ECHOG Barnyardgrass [11] = assay: Postemergence herbicidal evaluation, ECHOG; assay type: in vivo, Echinochloa crus-galli, (L.) Beau; conditions: postemergence spray, rated about two-three weeks after treatment
# Outline: as §2
# ORYSAT Rice, Tebonnet [12] = assay: Postemergence herbicidal evaluation, ORYSAT; assay type: in vivo, Oryza sativa, (L.); conditions: postemergence spray, rated about two-three weeks after treatment
# Outline: as §2
# ABUTH Velvetleaf [13] = assay: Preemergence herbicidal evaluation, ABUTH; assay type: in vivo, Abutilon theophrasti, Medic.; conditions: preemergence
# Outline: as §1
# AMBEL Ragweed, Common [14] = assay: Postemergence herbicidal evaluation, AMBEL; assay type: in vivo, Ambrosia artemisifolia, L.; conditions: postemergence spray, rated about two-three weeks after treatment
# Outline: as §2
# [15] = test system: IPOHE Morningglory, Ivyleaf; assay: Postemergence herbicidal evaluation, IPOHE; assay type: in vivo, Ipomoea hederacea, (L.) Jacq.; conditions: postemergence spray, rated about two-three weeks after treatment
# Outline: as §2
# ZEAMX Corn, Field [16] = assay: Postemergence herbicidal evaluation, ZEAMX; assay type: in vivo, Zea mays, L. (Sammel-Bezeichnung); conditions: postemergence spray, rated about two-three weeks after treatment
# Outline: as §2
# [17] = test system: TRZAWR Wheat, Winter, cv Riband; assay: Postemergence herbicidal evaluation, TRZAWR; assay type: in vivo, Triticum aestivum; conditions: postemergence spray, rated about two-three weeks after treatment
# Outline: as §2
# [18] = test system: TRZAWR Wheat, Winter, cv Riband; assay: Preemergence herbicidal evaluation, TRZAWR; assay type: in vivo, Triticum aestivum; conditions: preemergence
# Outline: as §1
# GALAP Galium [19] = assay: Preemergence herbicidal evaluation, GALAP; assay type: in vivo, Galium aparine; conditions: preemergence
# Outline: as §1
# AMBEL Ragweed, Common [20] = assay: Preemergence herbicidal evaluation, AMBEL; assay type: in vivo, Ambrosia artemisifolia, L.; conditions: preemergence
# Outline: as §1
# GLXMAW Soybean, Williams [21] = assay: Preemergence herbicidal evaluation, GLXMAW; assay type: in vivo, Glycine max, (L.) Merr. cv Williams; conditions: preemergence
# Outline: as §1
# GLXMAW Soybean, Williams [22] = assay: Postemergence herbicidal evaluation, GLXMAW; assay type: in vivo, Glycine max, (L.) Merr. cv Williams; conditions: postemergence spray, rated about two-three weeks after treatment
# Outline: as §2
# [23] = test system: CHEAL Lambsquarters, Common; assay: Postemergence herbicidal evaluation, CHEAL; assay type: in vivo, Chenopodium album, L.; conditions: postemergence spray, rated about two-three weeks after treatment
# Outline: as §2
# ECHOG Barnyardgrass [24] = assay: Preemergence herbicidal evaluation, ECHOG; assay type: in vivo, Echinochloa crus-galli, (L.) Beau; conditions: preemergence
# Outline: as §1
compound,measurement,setting,value
C=CCOc1ccc(C)cc1-n1nnc2cc(F)c(-n3c(=O)cc(C(F)(F)F)n(C)c3=O)cc21 [Example 42],IPOHE herbicidal rating,[1]; rate 0.016 kg/ha,0.0
same,IPOHE herbicidal rating,[1]; rate 0.032 kg/ha,0.0
same,IPOHE herbicidal rating,[1]; rate 0.062 kg/ha,0.0
same,IPOHE herbicidal rating,[1]; rate 0.125 kg/ha,6.0
same,ZEAMX herbicidal rating,"ZEAMX Corn, Field [2]; rate 0.016 kg/ha",0.0
same,ZEAMX herbicidal rating,"ZEAMX Corn, Field [2]; rate 0.032 kg/ha",0.0
same,ZEAMX herbicidal rating,"ZEAMX Corn, Field [2]; rate 0.062 kg/ha",1.0
same,ZEAMX herbicidal rating,"ZEAMX Corn, Field [2]; rate 0.125 kg/ha",4.0
same,Postemergence herbicidal rating ABUTH,ABUTH Velvetleaf [3]; 0.008 kg/ha,7.0
same,Postemergence herbicidal rating ABUTH,ABUTH Velvetleaf [3]; 0.016 kg/ha,9.0
same,Postemergence herbicidal rating ABUTH,ABUTH Velvetleaf [3]; 0.032 kg/ha,9.0
same,Postemergence herbicidal rating ABUTH,ABUTH Velvetleaf [3]; 0.062 kg/ha,9.0
same,Postemergence herbicidal rating SETVI,"SETVI Foxtail, Green [4]; 0.008 kg/ha",0.0
same,Postemergence herbicidal rating SETVI,"SETVI Foxtail, Green [4]; 0.016 kg/ha",2.0
same,Postemergence herbicidal rating SETVI,"SETVI Foxtail, Green [4]; 0.032 kg/ha",9.0
same,Postemergence herbicidal rating SETVI,"SETVI Foxtail, Green [4]; 0.062 kg/ha",9.0
same,Postemergence herbicidal rating GALAP,GALAP Galium [5]; 0.008 kg/ha,1.0
same,Postemergence herbicidal rating GALAP,GALAP Galium [5]; 0.016 kg/ha,1.0
same,Postemergence herbicidal rating GALAP,GALAP Galium [5]; 0.032 kg/ha,1.0
same,Postemergence herbicidal rating GALAP,GALAP Galium [5]; 0.062 kg/ha,1.0
same,SETVI herbicidal rating,"SETVI Foxtail, Green [6]; rate 0.016 kg/ha",3.0
same,SETVI herbicidal rating,"SETVI Foxtail, Green [6]; rate 0.032 kg/ha",7.0
same,SETVI herbicidal rating,"SETVI Foxtail, Green [6]; rate 0.062 kg/ha",9.0
same,SETVI herbicidal rating,"SETVI Foxtail, Green [6]; rate 0.125 kg/ha",9.0
same,CASOB herbicidal rating,CASOB Sicklepod [7]; rate 0.016 kg/ha,0.0
same,CASOB herbicidal rating,CASOB Sicklepod [7]; rate 0.032 kg/ha,0.0
same,CASOB herbicidal rating,CASOB Sicklepod [7]; rate 0.062 kg/ha,0.0
same,CASOB herbicidal rating,CASOB Sicklepod [7]; rate 0.125 kg/ha,1.0
same,ORYSAT herbicidal rating,"ORYSAT Rice, Tebonnet [8]; rate 0.016 kg/ha",0.0
same,ORYSAT herbicidal rating,"ORYSAT Rice, Tebonnet [8]; rate 0.032 kg/ha",0.0
same,ORYSAT herbicidal rating,"ORYSAT Rice, Tebonnet [8]; rate 0.062 kg/ha",1.0
same,ORYSAT herbicidal rating,"ORYSAT Rice, Tebonnet [8]; rate 0.125 kg/ha",1.0
same,CHEAL herbicidal rating,[9]; rate 0.016 kg/ha,9.0
same,CHEAL herbicidal rating,[9]; rate 0.032 kg/ha,9.0
same,CHEAL herbicidal rating,[9]; rate 0.062 kg/ha,9.0
same,CHEAL herbicidal rating,[9]; rate 0.125 kg/ha,9.0
same,Postemergence herbicidal rating CASOB,CASOB Sicklepod [10]; 0.008 kg/ha,0.0
same,Postemergence herbicidal rating CASOB,CASOB Sicklepod [10]; 0.016 kg/ha,0.0
same,Postemergence herbicidal rating CASOB,CASOB Sicklepod [10]; 0.032 kg/ha,4.0
same,Postemergence herbicidal rating CASOB,CASOB Sicklepod [10]; 0.062 kg/ha,4.0
same,Postemergence herbicidal rating ECHCG,ECHOG Barnyardgrass [11]; 0.008 kg/ha,0.0
same,Postemergence herbicidal rating ECHCG,ECHOG Barnyardgrass [11]; 0.016 kg/ha,1.0
same,Postemergence herbicidal rating ECHCG,ECHOG Barnyardgrass [11]; 0.032 kg/ha,1.0
same,Postemergence herbicidal rating ECHCG,ECHOG Barnyardgrass [11]; 0.062 kg/ha,1.0
same,Postemergence herbicidal rating ORYSAT,"ORYSAT Rice, Tebonnet [12]; 0.008 kg/ha",2.0
same,Postemergence herbicidal rating ORYSAT,"ORYSAT Rice, Tebonnet [12]; 0.016 kg/ha",2.5
same,Postemergence herbicidal rating ORYSAT,"ORYSAT Rice, Tebonnet [12]; 0.032 kg/ha",2.5
same,Postemergence herbicidal rating ORYSAT,"ORYSAT Rice, Tebonnet [12]; 0.062 kg/ha",2.5
same,ABUTH herbicidal rating,ABUTH Velvetleaf [13]; rate 0.016 kg/ha,7.0
same,ABUTH herbicidal rating,ABUTH Velvetleaf [13]; rate 0.032 kg/ha,9.0
same,ABUTH herbicidal rating,ABUTH Velvetleaf [13]; rate 0.062 kg/ha,9.0
same,ABUTH herbicidal rating,ABUTH Velvetleaf [13]; rate 0.125 kg/ha,9.0
same,Postemergence herbicidal rating AMBEL,"AMBEL Ragweed, Common [14]; 0.008 kg/ha",7.0
same,Postemergence herbicidal rating AMBEL,"AMBEL Ragweed, Common [14]; 0.016 kg/ha",7.0
same,Postemergence herbicidal rating AMBEL,"AMBEL Ragweed, Common [14]; 0.032 kg/ha",7.0
same,Postemergence herbicidal rating AMBEL,"AMBEL Ragweed, Common [14]; 0.062 kg/ha",9.0
same,Postemergence herbicidal rating IPOHE,[15]; 0.008 kg/ha,9.0
same,Postemergence herbicidal rating IPOHE,[15]; 0.016 kg/ha,9.0
same,Postemergence herbicidal rating IPOHE,[15]; 0.032 kg/ha,9.0
same,Postemergence herbicidal rating IPOHE,[15]; 0.062 kg/ha,9.0
same,Postemergence herbicidal rating ZEAMX,"ZEAMX Corn, Field [16]; 0.008 kg/ha",5.0
same,Postemergence herbicidal rating ZEAMX,"ZEAMX Corn, Field [16]; 0.016 kg/ha",5.0
same,Postemergence herbicidal rating ZEAMX,"ZEAMX Corn, Field [16]; 0.032 kg/ha",4.5
same,Postemergence herbicidal rating ZEAMX,"ZEAMX Corn, Field [16]; 0.062 kg/ha",5.0
same,Postemergence herbicidal rating TRZAWR,[17]; 0.008 kg/ha,2.5
same,Postemergence herbicidal rating TRZAWR,[17]; 0.016 kg/ha,2.5
same,Postemergence herbicidal rating TRZAWR,[17]; 0.032 kg/ha,3.0
same,Postemergence herbicidal rating TRZAWR,[17]; 0.062 kg/ha,4.0
same,TRZAWR herbicidal rating,[18]; rate 0.016 kg/ha,0.0
same,TRZAWR herbicidal rating,[18]; rate 0.032 kg/ha,0.0
same,TRZAWR herbicidal rating,[18]; rate 0.062 kg/ha,0.0
same,TRZAWR herbicidal rating,[18]; rate 0.125 kg/ha,1.0
same,GALAP herbicidal rating,GALAP Galium [19]; rate 0.016 kg/ha,0.0
same,GALAP herbicidal rating,GALAP Galium [19]; rate 0.032 kg/ha,0.0
same,GALAP herbicidal rating,GALAP Galium [19]; rate 0.062 kg/ha,0.0
same,GALAP herbicidal rating,GALAP Galium [19]; rate 0.125 kg/ha,0.0
same,AMBEL herbicidal rating,"AMBEL Ragweed, Common [20]; rate 0.016 kg/ha",0.0
same,AMBEL herbicidal rating,"AMBEL Ragweed, Common [20]; rate 0.032 kg/ha",0.0
same,AMBEL herbicidal rating,"AMBEL Ragweed, Common [20]; rate 0.062 kg/ha",1.0
same,AMBEL herbicidal rating,"AMBEL Ragweed, Common [20]; rate 0.125 kg/ha",5.0
same,GLXMAW herbicidal rating,"GLXMAW Soybean, Williams [21]; rate 0.016 kg/ha",0.0
same,GLXMAW herbicidal rating,"GLXMAW Soybean, Williams [21]; rate 0.032 kg/ha",3.0
same,GLXMAW herbicidal rating,"GLXMAW Soybean, Williams [21]; rate 0.062 kg/ha",3.0
same,GLXMAW herbicidal rating,"GLXMAW Soybean, Williams [21]; rate 0.125 kg/ha",5.0
same,Postemergence herbicidal rating GLXMAW,"GLXMAW Soybean, Williams [22]; 0.008 kg/ha",5.0
same,Postemergence herbicidal rating GLXMAW,"GLXMAW Soybean, Williams [22]; 0.016 kg/ha",5.5
same,Postemergence herbicidal rating GLXMAW,"GLXMAW Soybean, Williams [22]; 0.032 kg/ha",7.0
same,Postemergence herbicidal rating GLXMAW,"GLXMAW Soybean, Williams [22]; 0.062 kg/ha",7.0
same,Postemergence herbicidal rating CHEAL,[23]; 0.008 kg/ha,2.0
same,Postemergence herbicidal rating CHEAL,[23]; 0.016 kg/ha,6.0
same,Postemergence herbicidal rating CHEAL,[23]; 0.032 kg/ha,7.0
same,Postemergence herbicidal rating CHEAL,[23]; 0.062 kg/ha,7.0
same,ECHCG herbicidal rating,ECHOG Barnyardgrass [24]; rate 0.016 kg/ha,1.0
same,ECHCG herbicidal rating,ECHOG Barnyardgrass [24]; rate 0.032 kg/ha,3.0
same,ECHCG herbicidal rating,ECHOG Barnyardgrass [24]; rate 0.062 kg/ha,3.0
same,ECHCG herbicidal rating,ECHOG Barnyardgrass [24]; rate 0.125 kg/ha,7.0
